Laboratory results taken from patent US10662146B2, “Prodrugs of fencamfamine” (Praxis Bioresearch, LLC, priority 2015, dated 2020).
Where “and” joins values, the source holds several entries; their conditions need not be identical. Identical values can stand only once. Like-named read-outs stand apart in the source and are kept apart here.

Assay: Single dose oral PK study in male Sprague Dawley rats (plasma by LC-MS/MS)
Type: in vivo
Description: We describe here PK results of prodrugs of PRX-002 (−) or (+) isomers. All doses of prodrugs were administered such that they were equivalent to 5 mg/kg of PRX-002 (−) or (+) for oral studies and 2 mg/kg PRX-002 (−) or (+) for intravenous studies in male Sprague-Dawley (MSD) rats. Higher doses of up to 10 or 15 mg/kg [again equivalent to PRX-002 (−)] were used in some studies (as specified)]. Formulation preparation, dose administration and time of sample collection was as follows.
Test item was weighed [5 mg equivalent dose of PRX-002 for prodrugs] and transferred to a graduated tube. Then 10 μL of Tween 80 was added and vortexed mixed until the test item was completely mixed. Small volume of 0.5% (w/v) carboxymethylcellulose in water solution was then added dropwise with continuous vortex mixing until a uniform suspension was obtained. The final volume was then made up to 10 mL with 0.5% (w/v) carboxymethylcellulose in water with final strength of 0.5 mg/mL. […] This formulation was freshly prepared before the administration to animals.
(§1) Adult male Sprague Dawley Rats aged 8-10 weeks were used for the study. Fasted animals were administered test item by oral route with a dose of 5 mg/kg body weight at dose volume of 10 mL/kg body weight. Under mild isoflurane anesthesia, blood specimens were collected by retro-orbital puncture method using capillary tubes into pre-labeled tubes containing anticoagulant (K2EDTA-2 mg/mL blood) during the next 24 hours of post dose as mentioned in below table. For blood sampling at multiple time points, right and left eyes were used alternatively for blood collection. Collected blood specimens were centrifuged at 4000 rpm, 4° C. for 10 minutes and plasma were separated and stored at −80° C. until analysis.
Blood was collected as outlined in Table 39.1 (oral).
(§2) Test item PRX-P4-003 was weighed and transferred to a graduated tube. Then 12.42 μL of Tween 80 was added and vortexed mixed until the test item was completely mixed. Small volume of 0.5% (w/v) Carboxymethylcellulose in water solution was then added dropwise with continuous vortex mixing until a uniform suspension was obtained. The final volume was then made up to 12.42 mL with 0.5% (w/v) Carboxymethylcellulose in water with final strength of 1.0 mgA/mL. […] This formulation was freshly prepared before the administration to animals.
as §1, with “with a PRX-P4-003” for “test item”, “10” for “5”
as §2, with “PRX-P5-006” for “PRX-P4-003”, “10” for “12.42”, “3.97 mg/mL.” for “1.0 mgA/mL.”
Adult male Sprague Dawley Rats aged 8-10 weeks were used for the study. Fasted animals were administered with a PRX-P5-006 by oral route with a dose of 15 mg/kg body weight at dose volume of 10 mL/kg body weight. […]

[1] = single oral dose 5 mg/kg body weight, individual animals (R0175, R0176, R0177), plasma, 5 mg/kg
[2] = PRX-P5-006 oral 5 mg/kg b.w., individual animals, 5 mg/kg
[3] = PRX-P5-006 oral 5 mg/kg, mean, 5 mg/kg

For `CCN[C@H]1[C@H]2CC[C@H](C2)[C@@H]1c1ccccc1` [PRX-002 (+) Isomer, (1S,2S,3R,4R)—N-Ethyl-3-phenylbicyclo[2.2.1]heptan-2-amine, reference compound], the “AUC% extrap of PRX-002(+) Isomer” value (PRX-002 (+) Isomer oral 5 mg/kg, mean, listed as PRX-002(+) Isomer, 5 mg/kg) was 18.063 ±11.646%, the “AUC% extrap of PRX-002(+) Isomer” value (PRX-002 (+) Isomer oral 5 mg/kg, mean, listed as PRX-002 (+isomer), 5 mg/kg) was 18.063 ± 11.646% and the AUC(0-inf) (male, Sprague Dawley, rat, in vivo, po, 5 mg/kg, single oral dose 5 mg/kg b.w., mean plasma PK parameters (mean ± SD), read-out: AUCinf) was 151 ± 68.6 ng·h/mL. For the same compound, the AUC(0-t) (male, Sprague Dawley, rat, in vivo, po, 5 mg/kg, single oral dose 5 mg/kg b.w., mean plasma PK parameters (mean ± SD), read-out: AUClast) was 128 ± 74.2 ng·h/mL, the Cmax (male, Sprague Dawley, rat, in vivo, po, 5 mg/kg, single oral dose 5 mg/kg b.w., mean plasma PK parameters (mean ± SD), read-out: Cmax) was 107 ± 25.4 ng/mL and the MRT last (male, Sprague Dawley, rat, in vivo, po, 5 mg/kg, single oral dose 5 mg/kg b.w., mean plasma PK parameters (mean ± SD), read-out: MRTlast) was 57.4 ± 16.1 min. The half-life (male, Sprague Dawley, rat, in vivo, po, 5 mg/kg, single oral dose 5 mg/kg b.w., mean plasma PK parameters (mean ± SD), read-out: T1/2 (converted)) was 59.5 ± 13.7 min, the Cmax (male, Sprague Dawley, rat, in vivo, po, 5 mg/kg, single oral dose 5 mg/kg body weight, individual animals (R0175, R0176, R0177), plasma, read-out: Cmax) was 135 ng/mL and the MRT last (male, Sprague Dawley, rat, in vivo, po, 5 mg/kg, single oral dose 5 mg/kg body weight, individual animals (R0175, R0176, R0177), plasma, read-out: MRTlast) was 75.6 min. It also gave a half-life (male, Sprague Dawley, rat, in vivo, po, 5 mg/kg, single oral dose 5 mg/kg body weight, individual animals (R0175, R0176, R0177), plasma, read-out: T1/2 (converted)) of 64.2 min, an AUC(0-inf) (male, Sprague Dawley, rat, in vivo, po, 5 mg/kg, single oral dose 5 mg/kg body weight, mean of N=3 (Table 39.24), read-out: AUCinf) of 151 ng·h/mL and an AUC(0-t) (male, Sprague Dawley, rat, in vivo, po, 5 mg/kg, single oral dose 5 mg/kg body weight, mean of N=3 (Table 39.24), read-out: AUClast) of 128 ng·h/mL. It also gave a Cmax (male, Sprague Dawley, rat, in vivo, po, 5 mg/kg, single oral dose 5 mg/kg body weight, mean of N=3 (Table 39.24), read-out: Cmax) of 107 ng/mL, an MRT last (male, Sprague Dawley, rat, in vivo, po, 5 mg/kg, single oral dose 5 mg/kg body weight, mean of N=3 (Table 39.24), read-out: MRTlast) of 57.4 min and a half-life (male, Sprague Dawley, rat, in vivo, po, 5 mg/kg, single oral dose 5 mg/kg body weight, mean of N=3 (Table 39.24), read-out: T1/2 (converted)) of 59.5 min. For the same compound, the Tmax (male, Sprague Dawley, rat, in vivo, single oral dose 5 mg/kg body weight, individual animals (R0175, R0176, R0177), plasma, read-out: Tmax) was 30 min, the AUC(0-inf) (male, Sprague-Dawley, rat, in vivo, po, 5 mg/kg, PRX-002 (+) Isomer oral 5 mg/kg, mean, read-out: AUCinf of PRX-002(+) Isomer) was 151 ± 68.6 ng·h/mL and the AUC(0-t) (male, Sprague-Dawley, rat, in vivo, po, 5 mg/kg, PRX-002 (+) Isomer oral 5 mg/kg, mean, read-out: AUClast of PRX-002(+) Isomer) was 128 ± 74.2 ng·h/mL. For the same compound, the Cmax (male, Sprague-Dawley, rat, in vivo, po, 5 mg/kg, PRX-002 (+) Isomer oral 5 mg/kg, mean, read-out: Cmax of PRX-002(+) Isomer) was 107 ± 25.4 ng/mL, the MRT last (male, Sprague-Dawley, rat, in vivo, po, 5 mg/kg, PRX-002 (+) Isomer oral 5 mg/kg, mean, read-out: MRTlast of PRX-002(+) Isomer) was 57.4 ± 16.1 min and the half-life (male, Sprague-Dawley, rat, in vivo, po, 5 mg/kg, PRX-002 (+) Isomer oral 5 mg/kg, mean, read-out: T1/2 of PRX-002(+) Isomer (converted)) was 59.5 ± 13.7 min. The Tmax (male, Sprague-Dawley, rat, in vivo, PRX-002 (+) Isomer oral 5 mg/kg, mean, read-out: Tmax of PRX-002(+) Isomer) was 30 min, the AUC% extrap (single oral dose 5 mg/kg b.w., mean plasma PK parameters (mean ± SD)) was 18.063 ± 11.646% and the AUC% extrap [1] was 6.89% and 30.13% and 17.17%. The AUCinf [1] was 229.43 ng·h/mL and 124.51 ng·h/mL and 100.4 ng·h/mL, the AUClast [1] was 213.62 ng·h/mL and 87 ng·h/mL and 83.16 ng·h/mL and the Cmax [1] was 85.44 ng/mL and 99.85 ng/mL. The MRTlast [1] was 51.6 min and 45 min, the T1/2 [1] was 70.2 min and 44.4 min and the AUC% extrap (single oral dose 5 mg/kg body weight, mean of N=3 (Table 39.24)) was 18.063%.

With `CCCCCCCCCCCCCCCCCC(=O)OC(C)OC(=O)N(CC)C1C2CCC(C2)C1c1ccccc1` (single isomer, unassigned) [PRX-P5-006, N-(1-Octadecanoyloxyethoxycarbonyl)-(−)-N-ethyl-3-phenylbicyclo[2.2.1]heptan-2-amine] the “AUC% extrap of PRX-P5-006” value [2] was 62.02% and 50.02% and 31.64%, the “AUCinf of PRX-P5-006” value [2] was 132.93 ng·h/mL and 88.37 ng·h/mL and the “AUClast of PRX-P5-006” value [2] was 66.44 ng·h/mL and 60.40 ng·h/mL. For the same compound, the “Cmax of PRX-P5-006” value [2] was 72.65 ng/mL and 67.85 ng/mL, the “MRTlast of PRX-P5-006” value [2] was 63 min and the “T1/2 of PRX-P5-006” value [2] was 199 min and 115 min. The “AUC% extrap of PRX-P5-006” value [3] was 47.896 ± 15.3010% and 47.896%, the “T1/2 of PRX-P5-006” value [3] was 174.4 min and the AUC(0-inf) (male, Sprague Dawley, rat, in vivo, po, 5 mg/kg, PRX-P5-006 oral 5 mg/kg, mean, read-out: AUCinf of PRX-P5-006) was 115 ± 23.3 ng·h/mL. For the same compound, the AUC(0-t) (male, Sprague Dawley, rat, in vivo, po, 5 mg/kg, PRX-P5-006 oral 5 mg/kg, mean, read-out: AUClast of PRX-P5-006) was 57.8 ± 10.2 ng·h/mL, the half-life (male, Sprague Dawley, rat, in vivo, po, 5 mg/kg, PRX-P5-006 oral 5 mg/kg, mean, read-out: T1/2 of PRX-P5-006 (converted)) was 174 ± 51.9 min and the Cmax (male, Sprague Dawley, rat, in vivo, po, 15 mg/kg, oral 15 mg/kg (footnote *), analyte: prodrug in plasma, mean, read-out: Oral PK Parameters Cmax, Prodrug) was 81.6 ± 42.2 ng/mL. For the same compound, the Tmax (male, Sprague Dawley, rat, in vivo, oral 5 mg/kg [equivalent to PRX-002 (−)], analyte: prodrug in plasma, mean, read-out: Oral PK Parameters Tmax, Prodrug) was 0 min, the AUC (male, Sprague Dawley, rat, in vivo, oral 15 mg/kg (footnote *), analyte: prodrug in plasma, mean, read-out: Oral PK Parameters AUC, Prodrug) was 477 ± 54.4 ng·h/mL and the Tmax (male, Sprague Dawley, rat, in vivo, oral 15 mg/kg (footnote *), analyte: prodrug in plasma, mean, read-out: Oral PK Parameters Tmax, Prodrug) was 48 ± 18 min. For the same compound, the AUC(0-inf) (male, Sprague-Dawley, rat, in vivo, po, 5 mg/kg, PRX-P5-006 oral 5 mg/kg b.w., individual animals, read-out: AUCinf of PRX-P5-006) was 123 ng·h/mL, the AUC(0-t) (male, Sprague-Dawley, rat, in vivo, po, 5 mg/kg, PRX-P5-006 oral 5 mg/kg b.w., individual animals, read-out: AUClast of PRX-P5-006) was 46.6 ng·h/mL and the Cmax (male, Sprague-Dawley, rat, in vivo, po, 5 mg/kg, PRX-P5-006 oral 5 mg/kg b.w., individual animals, read-out: Cmax of PRX-P5-006) was 43.9 ng/mL. The MRT last (male, Sprague-Dawley, rat, in vivo, po, 5 mg/kg, PRX-P5-006 oral 5 mg/kg b.w., individual animals, read-out: MRTlast of PRX-P5-006) was 66 min, the half-life (male, Sprague-Dawley, rat, in vivo, po, 5 mg/kg, PRX-P5-006 oral 5 mg/kg b.w., individual animals, read-out: T1/2 of PRX-P5-006 (converted)) was 210 min and the Cmax (male, Sprague-Dawley, rat, in vivo, po, 5 mg/kg, PRX-P5-006 oral 5 mg/kg, mean, read-out: Cmax of PRX-P5-006) was 61.5 ± 15.4 ng/mL. It also gave an MRT last (male, Sprague-Dawley, rat, in vivo, po, 5 mg/kg, PRX-P5-006 oral 5 mg/kg, mean, read-out: MRTlast of PRX-P5-006) of 64.2 ± 1.5 min and a Tmax (male, Sprague-Dawley, rat, in vivo, PRX-P5-006 oral 5 mg/kg, mean, read-out: Tmax of PRX-P5-006) of 60 min.
